According to PubChem BioAssay AID2060891 (Molecular Pharmacology Branch, DTP, NCI, 2025):

Test system: K98450-129-R-PDC complex spheroid growth, percent test/control
Experiment: Anticancer human tumor K98450-129-R-PDC patient-derived colon adenocarcinoma cell line growth inhibition [RAS]
Conditions: for IC50: curve of first compound; for viability, T/C: stronger effect = lower value
How it was run: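 Multi-cell-type spheroids: tumor cells plus HUVEC endothelial cells and mesenchymal stem cells. RAS-pathway inhibitors were combined with targeted agents, each dosed in half-log steps down from clinical Cmax, or from 10 microM when Cmax was unknown.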

[1] = second compound 0.00316 µM, first compound 0.00316 µM
[2] = second compound 0.00316 µM, first compound 0.01 µM
[3] = second compound 0.00316 µM, first compound 0.0316 µM
[4] = second compound 0.00316 µM, first compound 0.1 µM
[5] = second compound 0.01 µM, first compound 0.00316 µM
[6] = second compound 0.01 µM, first compound 0.01 µM
[7] = second compound 0.01 µM, first compound 0.0316 µM
[8] = second compound 0.01 µM, first compound 0.1 µM
[9] = second compound 0.0316 µM, first compound 0.00316 µM
[10] = second compound 0.0316 µM, first compound 0.01 µM
[11] = second compound 0.0316 µM, first compound 0.0316 µM
[12] = second compound 0.0316 µM, first compound 0.1 µM
[13] = second compound 0.1 µM, first compound 0.00316 µM
[14] = second compound 0.1 µM, first compound 0.01 µM
[15] = second compound 0.1 µM, first compound 0.0316 µM
[16] = second compound 0.1 µM, first compound 0.1 µM
[17] = second compound 0.316 µM, first compound 0.00316 µM
[18] = second compound 0.316 µM, first compound 0.01 µM
[19] = second compound 0.316 µM, first compound 0.0316 µM
[20] = second compound 0.316 µM, first compound 0.1 µM
[21] = second compound 1 µM, first compound 0.00316 µM
[22] = second compound 1 µM, first compound 0.01 µM
[23] = second compound 1 µM, first compound 0.0316 µM
[24] = second compound 1 µM, first compound 0.1 µM
[25] = second compound 0.00316 µM, first compound 0.316 µM
[26] = second compound 0.00316 µM, first compound 1 µM
[27] = second compound 0.01 µM, first compound 0.316 µM
[28] = second compound 0.01 µM, first compound 1 µM
[29] = second compound 0.0316 µM, first compound 0.316 µM
[30] = second compound 0.0316 µM, first compound 1 µM
[31] = second compound 0.1 µM, first compound 0.316 µM
[32] = second compound 0.1 µM, first compound 1 µM
[33] = second compound 0.316 µM, first compound 0.316 µM
[34] = second compound 0.316 µM, first compound 1 µM
[35] = second compound 1 µM, first compound 0.316 µM
[36] = second compound 1 µM, first compound 1 µM
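Also: spheroids exposed to agents for seven days before the viability readout.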
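For viability, T/C in this document: luminescence used as a proxy for viable cell amount.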

Molecule `CC(C)n1nc(-c2ccc3oc(N)nc3c2)c2c(N)ncnc21` + C=CC(=O)N1CCN(c2nc(OCC3CCCN3C)nc3c(F)c(-c4nc(N)cc(C)c4C(F)(F)F)c(Cl)cc23)C(C)C1 has an IC50 (second compound 0.00316 µM) of over 100 nM, an IC50 (second compound 0.01 µM) of over 100 nM and an IC50 (second compound 0.0316 µM) of 17.8 nM. It also gave an IC50 (second compound 0.1 µM) of 1.5 nM, an IC50 (second compound 0.316 µM) of under 0.316 nM and an IC50 (second compound 1 µM) of under 0.316 nM. It also gave a viability, T/C (second compound 0.00316 µM, first compound 0.000316 µM) of 90.9%, a viability, T/C (second compound 0.00316 µM, first compound 0.001 µM) of 85.2% and a viability, T/C [1] of 87.9%. For the same molecule, the viability, T/C [2] was 82.4%, the viability, T/C [3] was 76.5% and the viability, T/C [4] was 56.9%. It also gave a viability, T/C (second compound 0.01 µM, first compound 0.000316 µM) of 75.9%, a viability, T/C (second compound 0.01 µM, first compound 0.001 µM) of 78.9% and a viability, T/C [5] of 75%. For the same molecule, the viability, T/C [6] was 70%, the viability, T/C [7] was 61.2% and the viability, T/C [8] was 51.6%. The viability, T/C (second compound 0.0316 µM, first compound 0.000316 µM) was 70.2%, the viability, T/C (second compound 0.0316 µM, first compound 0.001 µM) was 58.8% and the viability, T/C [9] was 62.3%. It also gave a viability, T/C [10] of 52.3%, a viability, T/C [11] of 47.1% and a viability, T/C [12] of 40.5%. The viability, T/C (second compound 0.1 µM, first compound 0.000316 µM) was 54.7%, the viability, T/C (second compound 0.1 µM, first compound 0.001 µM) was 51% and the viability, T/C [13] was 46.1%. For the same molecule, the viability, T/C [14] was 44.3%, the viability, T/C [15] was 33.9% and the viability, T/C [16] was 27.2%. The viability, T/C (second compound 0.316 µM, first compound 0.000316 µM) was 38.8%, the viability, T/C (second compound 0.316 µM, first compound 0.001 µM) was 37% and the viability, T/C [17] was 33.1%. It also gave a viability, T/C [18] of 30.9%, a viability, T/C [19] of 25.7% and a viability, T/C [20] of 20.1%. The viability, T/C (second compound 1 µM, first compound 0.000316 µM) was 29.1%, the viability, T/C (second compound 1 µM, first compound 0.001 µM) was 27.5% and the viability, T/C [21] was 33.5%. For the same molecule, the viability, T/C [22] was 25%, the viability, T/C [23] was 21.4% and the viability, T/C [24] was 17.6%.

In the case of `CC(Nc1ccc2c(c1)OCCn1cc(N3C(=O)OCC3C(F)F)nc1-2)C(N)=O` (stereo unspecified) + C=CC(=O)N1CCN(c2nc(OCC3CCCN3C)nc3c(F)c(-c4nc(N)cc(C)c4C(F)(F)F)c(Cl)cc23)C(C)C1, the IC50 (second compound 0.00316 µM) is reported as over 10000 nM, the IC50 (second compound 0.01 µM) is reported as over 10000 nM and the IC50 (second compound 0.0316 µM) is reported as 4560 nM. For the same molecule, the IC50 (second compound 0.1 µM) was 73.8 nM, the IC50 (second compound 0.316 µM) was under 31.6 nM and the IC50 (second compound 1 µM) was under 31.6 nM. The viability, T/C [3] was 92.5%, the viability, T/C [4] was 90.4% and the viability, T/C [25] was 81.7%. For the same molecule, the viability, T/C [26] was 83.1%, the viability, T/C (second compound 0.00316 µM, first compound 3.16 µM) was 70% and the viability, T/C (second compound 0.00316 µM, first compound 10 µM) was 64.3%. It also gave a viability, T/C [7] of 85.4%, a viability, T/C [8] of 81.2% and a viability, T/C [27] of 78.5%. It also gave a viability, T/C [28] of 65.1%, a viability, T/C (second compound 0.01 µM, first compound 3.16 µM) of 59.8% and a viability, T/C (second compound 0.01 µM, first compound 10 µM) of 53.8%. It also gave a viability, T/C [11] of 69.5%, a viability, T/C [12] of 70.3% and a viability, T/C [29] of 62.7%. The viability, T/C [30] was 51.4%, the viability, T/C (second compound 0.0316 µM, first compound 3.16 µM) was 53.7% and the viability, T/C (second compound 0.0316 µM, first compound 10 µM) was 46.9%. It also gave a viability, T/C [15] of 53.9%, a viability, T/C [16] of 47.4% and a viability, T/C [31] of 45%. It also gave a viability, T/C [32] of 39%, a viability, T/C (second compound 0.1 µM, first compound 3.16 µM) of 32.5% and a viability, T/C (second compound 0.1 µM, first compound 10 µM) of 28.8%. It also gave a viability, T/C [19] of 35.4%, a viability, T/C [20] of 32.5% and a viability, T/C [33] of 31.6%. It also gave a viability, T/C [34] of 22.4%, a viability, T/C (second compound 0.316 µM, first compound 3.16 µM) of 22.9% and a viability, T/C (second compound 0.316 µM, first compound 10 µM) of 16.6%. The viability, T/C [23] was 28.4%, the viability, T/C [24] was 28.2% and the viability, T/C [35] was 23.5%. It also gave a viability, T/C [36] of 18%, a viability, T/C (second compound 1 µM, first compound 3.16 µM) of 15.3% and a viability, T/C (second compound 1 µM, first compound 10 µM) of 14.5%.

In the case of `O=C(c1ccc(F)c(F)c1Nc1ccc(I)cc1F)N1CC(O)([C@@H]2CCCCN2)C1` + C=CC(=O)N1CCN(c2nc(OCC3CCCN3C)nc3c(F)c(-c4nc(N)cc(C)c4C(F)(F)F)c(Cl)cc23)C(C)C1, the IC50 (second compound 0.00316 µM) is reported as 165 nM, the IC50 (second compound 0.01 µM) is reported as 132 nM and the IC50 (second compound 0.0316 µM) is reported as 106 nM. The IC50 (second compound 0.1 µM) was 8.9 nM, the IC50 (second compound 0.316 µM) was under 3.16 nM and the IC50 (second compound 1 µM) was under 3.16 nM. For the same molecule, the viability, T/C [1] was 91.1%, the viability, T/C [2] was 96.7% and the viability, T/C [3] was 87.9%. For the same molecule, the viability, T/C [4] was 78.3%, the viability, T/C [25] was 13.7% and the viability, T/C [26] was 2.87%. For the same molecule, the viability, T/C [5] was 86.3%, the viability, T/C [6] was 77.6% and the viability, T/C [7] was 81.8%. It also gave a viability, T/C [8] of 63.1%, a viability, T/C [27] of 9.42% and a viability, T/C [28] of 3.09%. It also gave a viability, T/C [9] of 72.8%, a viability, T/C [10] of 64.5% and a viability, T/C [11] of 63.2%. It also gave a viability, T/C [12] of 52.5%, a viability, T/C [29] of 7.27% and a viability, T/C [30] of 2.63%. For the same molecule, the viability, T/C [13] was 55.2%, the viability, T/C [14] was 47.6% and the viability, T/C [15] was 39%. It also gave a viability, T/C [16] of 22.6%, a viability, T/C [31] of 5.51% and a viability, T/C [32] of 2.39%. The viability, T/C [17] was 34.2%, the viability, T/C [18] was 34.2% and the viability, T/C [19] was 21.5%. For the same molecule, the viability, T/C [20] was 10.9%, the viability, T/C [33] was 4.66% and the viability, T/C [34] was 2.41%. The viability, T/C [21] was 27.9%, the viability, T/C [22] was 24.1% and the viability, T/C [23] was 16.3%. For the same molecule, the viability, T/C [24] was 9.12%, the viability, T/C [35] was 5% and the viability, T/C [36] was 2.46%.
